Earlier results in PMC8466373, “Plant-Derived and Dietary Hydroxybenzoic Acids—A Comprehensive Study of Structural, Anti-/Pro-Oxidant, Lipophilic, Antimicrobial, and Cytotoxic Activity in MDA-MB-231 and MCF-7 Cell Lines” (Nutrients, 2021).
Converted amounts (≈) assume the structure as drawn.

Columns and labels:
[1] = tested on: monocytes treated with hydrogen peroxide; settings: 200 μM; cited from earlier work
A. fumigatus = settings: concentration of 30 mg/mL; cited from earlier work
A. niger = settings: concentration of 30 mg/mL; cited from earlier work
[2] = tested on: S. aureus, B. cereus, M. flavus, P. aeruginosa, E. coli, and E. cloacae; settings: all mentioned strains; cited from earlier work
[3] = tested on: Botrytis cinerea and Rhizopus stolonifer; settings: concentration of 5 mM; cited from earlier work
[4] = tested on: E. coli, B. aureus, and L. monocytogenes; set-up: method as in doi:10.17221/132/2010-CJFS; settings: ref 90; cited from earlier work
MCF-7 = settings: incubation time: 24 h, cited from earlier work
A2780 cancer cells = settings: incubation time: two days; cited from earlier work

For `O=C(O)c1cccc(O)c1O` [2,3-DHB, 2,3-Dihydroxybenzoic acid], the cell survival [1] is given as 50%, the zone of inhibition (A. fumigatus) is given as 30 mm and the zone of inhibition (A. niger) is given as 22 mm.
In the case of `O=C(O)c1ccc(O)c(O)c1` [3,4-DHB, 3,4-dihydroxybenzoic acid], the MIC [2] is given as 3000 µg/mL (≈ 19.5 mM).
In the case of `O=C(O)c1cc(O)ccc1O` [2,5-DHB, 2,5-dihydroxybenzoic acid], the “inhibition of spore germination and mycelial growth” value [3] is given as “completely inhibited” and the MIC [4] is given as 2500 µM (≈ 385 µg/mL).
In the case of `O=C(O)c1cc(O)c(O)c(O)c1` [3,4,5-THB, 3,4,5-trihydroxybenzoic acid], the “cell proliferation of MCF-7, % of control” value (MCF-7; 5 μg/mL) is given as 42.73 % of control, the “concentration inhibiting 50% of MCF-7 cancer cells” value (MCF-7) is given as 7.5 µg/mL and the “IC50, A2780 cancer cells” value (A2780 cancer cells) is given as 45.25 µg/mL (≈ 0.266 mM).
